Results from US12077503B2, “Substituted cyclic amides and their use as herbicides” (FMC CORPORATION, priority 2015, dated 2024).

Columns and labels:
Assay type in all cases: in vivo
[1] = tested on: barnyardgrass (Echinochloa crus-galli); assay: Test G Pre-Emergence Protocol; details: Echinochloa crus-galli, pre-emergence, 312 h, evaluated after 13 days; for pest or weed control at 15.625 g/ha: 15.625 g ai/ha, read-out: Barnyard grass damage rating (100=total damage to plant; 0=no damage to plant); for pest or weed control at 62.5 g/ha: 62.5 g ai/ha, 100=total damage to plant, 0=no damage to plant, read-out: plant damage rating, Barnyardgrass; for pest or weed control at 250 g/ha: 250 g ai/ha, read-out: Barnyardgrass damage rating (100=total damage to plant; 0=no damage to plant)
In short: (§1)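 One day after sowing, pots are treated with a spray of test compound formulated in acetone/water 50:50 plus 0.5% Tween 20, giving 15.625, 62.5 or 250 g/ha. Evaluation on a 0–100 damage scale follows 13 days of glasshouse growth.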

corn (Zea mays) [2] = assay: Test G Pre-Emergence Protocol; details: Zea mays, pre-emergence, 312 h, evaluated after 13 days; for plant injury at 15.625 g/ha: 15.625 g ai/ha; for plant injury at 15.625 g/ha / plant injury at 250 g/ha: read-out: Corn damage rating (100=total damage to plant; 0=no damage to plant); for plant injury at 62.5 g/ha: 62.5 g ai/ha, 100=total damage to plant, 0=no damage to plant, read-out: plant damage rating, Corn; for plant injury at 250 g/ha: 250 g ai/ha
In short: as §1

[3] = tested on: giant foxtail (Setaria faberi); assay: Test G Pre-Emergence Protocol; details: Setaria faberi, pre-emergence, 312 h, evaluated after 13 days; for pest or weed control at 15.625 g/ha: 15.625 g ai/ha; for pest or weed control at 15.625 g/ha / pest or weed control at 250 g/ha: read-out: Foxtail, Giant damage rating (100=total damage to plant; 0=no damage to plant); for pest or weed control at 62.5 g/ha: 62.5 g ai/ha, 100=total damage to plant, 0=no damage to plant, read-out: plant damage rating, Foxtail, Giant; for pest or weed control at 250 g/ha: 250 g ai/ha
In short: as §1

[4] = tested on: ivy-leaved morning glory (Ipomoea hederacea); assay: Test G Pre-Emergence Protocol; details: Ipomoea, pre-emergence, 312 h, evaluated after 13 days; for pest or weed control at 62.5 g/ha: 62.5 g ai/ha, 100=total damage to plant, 0=no damage to plant, read-out: plant damage rating, Morningglory, Ivy-leaved; for pest or weed control at 15.625 g/ha: 15.625 g ai/ha, read-out: Morning-glory, Ivy-leaved damage rating (100=total damage to plant; 0=no damage to plant); for pest or weed control at 250 g/ha: 250 g ai/ha, read-out: Morningglory, Ivy-leaved damage rating (100=total damage to plant; 0=no damage to plant)
In short: as §1

[5] = tested on: redroot pigweed (Amaranthus retroflexus); assay: Test G Pre-Emergence Protocol; details: Amaranthus retroflexus, pre-emergence, 312 h, evaluated after 13 days; for pest or weed control at 15.625 g/ha: 15.625 g ai/ha; for pest or weed control at 15.625 g/ha / pest or weed control at 250 g/ha: read-out: Pigweed, Redroot damage rating (100=total damage to plant; 0=no damage to plant); for pest or weed control at 62.5 g/ha: 62.5 g ai/ha, 100=total damage to plant, 0=no damage to plant, read-out: plant damage rating, Pigweed, Redroot; for pest or weed control at 250 g/ha: 250 g ai/ha
In short: as §1

[6] = tested on: velvetleaf (Abutilon theophrasti); assay: Test G Pre-Emergence Protocol; details: Abutilon theophrasti, pre-emergence, 312 h, evaluated after 13 days; for pest or weed control at 15.625 g/ha: 15.625 g ai/ha; for pest or weed control at 15.625 g/ha / pest or weed control at 250 g/ha: read-out: Velvetleaf damage rating (100=total damage to plant; 0=no damage to plant); for pest or weed control at 62.5 g/ha: 62.5 g ai/ha, 100=total damage to plant, 0=no damage to plant, read-out: plant damage rating, Velvetleaf; for pest or weed control at 250 g/ha: 250 g ai/ha
In short: as §1

[7] = tested on: barnyardgrass (Echinochloa crus-galli); assay: Test G Post-Emergence Protocol; details: Echinochloa crus-galli, post-emergence, 312 h; for pest or weed control at 15.625 g/ha: 15.625 g ai/ha, evaluated after 13 days (100=total damage to plant; 0=no damage to plant), read-out: Barnyardgrass damage rating; for pest or weed control at 62.5 g/ha: 62.5 g ai/ha, read-out: Barnyardgrass damage rating (100=total damage to plant; 0=no damage to plant); for pest or weed control at 62.5 g/ha / pest or weed control at 250 g/ha: evaluated after 13 days; for pest or weed control at 250 g/ha: 250 g ai/ha, read-out: damage to plant, Barnyardgrass (100=total damage to plant; 0=no damage to plant)
In short: (§2)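 Sow in soil; grow 8 d (24/16 °C, 14 h light, 65% humidity); spray 15.625/62.5/250 g/ha in acetone:water 50:50 + 0.5% Tween 20; grow on, water twice daily; score damage 0–100 at 13 d.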

corn (Zea mays) [8] = assay: Test G Post-Emergence Protocol; details: Zea mays, post-emergence, 312 h; for plant injury at 15.625 g/ha: 15.625 g ai/ha, evaluated after 13 days (100=total damage to plant; 0=no damage to plant), read-out: Corn damage rating; for plant injury at 62.5 g/ha: 62.5 g ai/ha, read-out: Corn damage rating (100=total damage to plant; 0=no damage to plant); for plant injury at 62.5 g/ha / plant injury at 250 g/ha: evaluated after 13 days; for plant injury at 250 g/ha: 250 g ai/ha, read-out: damage to plant, Corn (100=total damage to plant; 0=no damage to plant)
In short: as §2

[9] = tested on: giant foxtail (Setaria faberi); assay: Test G Post-Emergence Protocol; details: Setaria faberi, post-emergence, 312 h; for pest or weed control at 15.625 g/ha: 15.625 g ai/ha, evaluated after 13 days (100=total damage to plant; 0=no damage to plant), read-out: Foxtail, Giant damage rating; for pest or weed control at 62.5 g/ha: 62.5 g ai/ha, read-out: Foxtail, Giant damage rating (100=total damage to plant; 0=no damage to plant); for pest or weed control at 62.5 g/ha / pest or weed control at 250 g/ha: evaluated after 13 days; for pest or weed control at 250 g/ha: 250 g ai/ha, read-out: damage to plant, Foxtail, Giant (100=total damage to plant; 0=no damage to plant)
In short: as §2

[10] = tested on: ivy-leaved morning glory (Ipomoea hederacea); assay: Test G Post-Emergence Protocol; details: Ipomoea, post-emergence, 312 h; for pest or weed control at 15.625 g/ha: 15.625 g ai/ha, evaluated after 13 days (100=total damage to plant; 0=no damage to plant), read-out: Morningglory, Ivy-leaved damage rating; for pest or weed control at 62.5 g/ha: 62.5 g ai/ha, read-out: Morningglory, Ivy-leaved damage rating (100=total damage to plant; 0=no damage to plant); for pest or weed control at 62.5 g/ha / pest or weed control at 250 g/ha: evaluated after 13 days; for pest or weed control at 250 g/ha: 250 g ai/ha, read-out: damage to plant, Morningglory, Ivy-leaved (100=total damage to plant; 0=no damage to plant)
In short: as §2

[11] = tested on: redroot pigweed (Amaranthus retroflexus); assay: Test G Post-Emergence Protocol; details: Amaranthus retroflexus, post-emergence, 312 h; for pest or weed control at 15.625 g/ha: 15.625 g ai/ha, evaluated after 13 days (100=total damage to plant; 0=no damage to plant), read-out: Pigweed, Redroot damage rating; for pest or weed control at 62.5 g/ha: 62.5 g ai/ha, read-out: Pigweed, Redroot damage rating (100=total damage to plant; 0=no damage to plant); for pest or weed control at 62.5 g/ha / pest or weed control at 250 g/ha: evaluated after 13 days; for pest or weed control at 250 g/ha: 250 g ai/ha, read-out: damage to plant, Pigweed, Redroot (100=total damage to plant; 0=no damage to plant)
In short: as §2

[12] = tested on: velvetleaf (Abutilon theophrasti); assay: Test G Post-Emergence Protocol; details: Abutilon theophrasti, post-emergence, 312 h; for pest or weed control at 15.625 g/ha: 15.625 g ai/ha, evaluated after 13 days (100=total damage to plant; 0=no damage to plant), read-out: Velvetleaf damage rating; for pest or weed control at 62.5 g/ha: 62.5 g ai/ha, read-out: Velvetleaf damage rating (100=total damage to plant; 0=no damage to plant); for pest or weed control at 62.5 g/ha / pest or weed control at 250 g/ha: evaluated after 13 days; for pest or weed control at 250 g/ha: 250 g ai/ha, read-out: damage to plant, Velvetleaf (100=total damage to plant; 0=no damage to plant)
In short: as §2

| Compound | pest or weed control at 15.625 g/ha [1] | pest or weed control at 62.5 g/ha [1] | pest or weed control at 250 g/ha [1] | plant injury at 15.625 g/ha (corn (Zea mays) [2]) | plant injury at 62.5 g/ha (corn (Zea mays) [2]) | plant injury at 250 g/ha (corn (Zea mays) [2]) | pest or weed control at 15.625 g/ha [3] | pest or weed control at 62.5 g/ha [3] | pest or weed control at 250 g/ha [3] | pest or weed control at 62.5 g/ha [4] | pest or weed control at 15.625 g/ha [5] | pest or weed control at 62.5 g/ha [5] | pest or weed control at 250 g/ha [5] | pest or weed control at 15.625 g/ha [6] | pest or weed control at 62.5 g/ha [6] | pest or weed control at 250 g/ha [6] | pest or weed control at 15.625 g/ha [7] | pest or weed control at 62.5 g/ha [7] | pest or weed control at 250 g/ha [7] | plant injury at 15.625 g/ha (corn (Zea mays) [8]) | further results |
| --- | --- | --- | --- | --- | --- | --- | --- | --- | --- | --- | --- | --- | --- | --- | --- | --- | --- | --- | --- | --- | --- |
| CN1C[C@H](c2ccc3ccccc3c2)[C@@H](C(=O)Nc2cccc(F)c2F)C1=O (racemic) [Compound 1501] | 0% | 50% | 60% | 0% | 0% | 0% | 0% | 70% | 80% | 0% | 0% | 0% | 0% | 0% | 0% | 0% | 10% | 50% | 60% | 10% | plant injury at 62.5 g/ha (corn (Zea mays) [8]): 20%; plant injury at 250 g/ha (corn (Zea mays) [8]): 30%; pest or weed control at 15.625 g/ha [9]: 40%; pest or weed control at 62.5 g/ha [9]: 60%; pest or weed control at 250 g/ha [9]: 60%; pest or weed control at 15.625 g/ha [10]: 0%; pest or weed control at 62.5 g/ha [10]: 0%; pest or weed control at 250 g/ha [10]: 0%; pest or weed control at 15.625 g/ha [11]: 0%; pest or weed control at 62.5 g/ha [11]: 0%; pest or weed control at 250 g/ha [11]: 0%; pest or weed control at 15.625 g/ha [12]: 0%; pest or weed control at 62.5 g/ha [12]: 0%; pest or weed control at 250 g/ha [12]: 0% |
| Cc1cnc(NC(=O)[C@@H]2C(=O)N(C)C[C@H]2c2ccc(C(F)(F)F)cc2)nn1 (racemic) [Compound 1508] | 0% | 0% | 0% | 0% | 0% | 0% | 0% | 0% | 0% | 0% | 0% | 0% | 0% | 0% | 0% | 0% | 0% | 0% | 0% | 0% | pest or weed control at 15.625 g/ha [4]: 0%; pest or weed control at 250 g/ha [4]: 0%; plant injury at 62.5 g/ha (corn (Zea mays) [8]): 0%; plant injury at 250 g/ha (corn (Zea mays) [8]): 0%; pest or weed control at 15.625 g/ha [9]: 0%; pest or weed control at 62.5 g/ha [9]: 0%; pest or weed control at 250 g/ha [9]: 0%; pest or weed control at 15.625 g/ha [10]: 0%; pest or weed control at 62.5 g/ha [10]: 0%; pest or weed control at 250 g/ha [10]: 0%; pest or weed control at 15.625 g/ha [11]: 0%; pest or weed control at 62.5 g/ha [11]: 0%; pest or weed control at 250 g/ha [11]: 0%; pest or weed control at 15.625 g/ha [12]: 0%; pest or weed control at 62.5 g/ha [12]: 0%; pest or weed control at 250 g/ha [12]: 0% |
| CN1C[C@@H](c2ccc(C(F)(F)F)cc2)[C@H](C(=O)Nc2cc(F)ncn2)C1=O (racemic) [Compound 1509] | 0% | 0% | 0% | 0% | 0% | 0% | 0% | 0% | 0% | 0% | 0% | 0% | 0% | 0% | 0% | 0% | 0% | 0% | 0% | 0% | pest or weed control at 15.625 g/ha [4]: 0%; pest or weed control at 250 g/ha [4]: 0%; plant injury at 62.5 g/ha (corn (Zea mays) [8]): 0%; plant injury at 250 g/ha (corn (Zea mays) [8]): 0%; pest or weed control at 15.625 g/ha [9]: 0%; pest or weed control at 62.5 g/ha [9]: 0%; pest or weed control at 250 g/ha [9]: 0%; pest or weed control at 15.625 g/ha [10]: 0%; pest or weed control at 62.5 g/ha [10]: 0%; pest or weed control at 250 g/ha [10]: 0%; pest or weed control at 15.625 g/ha [11]: 0%; pest or weed control at 62.5 g/ha [11]: 0%; pest or weed control at 250 g/ha [11]: 0%; pest or weed control at 15.625 g/ha [12]: 0%; pest or weed control at 62.5 g/ha [12]: 0%; pest or weed control at 250 g/ha [12]: 0% |
